# Experimental data published in PubChem BioAssay (NCI).
#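 A five-concentration, 48-hour dose response in 96-well plates underlies each endpoint, interpolated linearly between surrounding concentrations. Abbreviation: GI50, concentration required for 50% inhibition of growth. Definition used: TGI = concentration required for complete inhibition of growth.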
# Legend:
# Assay in all cases: NCI-60 cell line screen, 48 h
# 786-0 renal = test system: 786-0 renal
# A498 renal = test system: A498 renal
# A549 NSCLC = test system: A549 NSCLC
# ACHN renal = test system: ACHN renal
# BT-549 breast = test system: BT-549 breast
# CAKI-1 renal = test system: CAKI-1 renal
# CCRF-CEM leukemia = test system: CCRF-CEM leukemia
# COLO 205 colon = test system: COLO 205 colon
# DU-145 prostate = test system: DU-145 prostate
# EKVX NSCLC = test system: EKVX NSCLC
# HCC-2998 colon = test system: HCC-2998 colon
# HCT-116 colon = test system: HCT-116 colon
# HCT-15 colon = test system: HCT-15 colon
# HL-60(TB) leukemia = test system: HL-60(TB) leukemia
# HOP-62 NSCLC = test system: HOP-62 NSCLC
# HOP-92 NSCLC = test system: HOP-92 NSCLC
# HS 578T breast = test system: HS 578T breast
# HT29 colon = test system: HT29 colon
# IGROV1 ovarian = test system: IGROV1 ovarian
# K-562 leukemia = test system: K-562 leukemia
# KM12 colon = test system: KM12 colon
# LOX IMVI melanoma = test system: LOX IMVI melanoma
# MALME-3M melanoma = test system: MALME-3M melanoma
# MCF7 breast = test system: MCF7 breast
# MDA-MB-231 breast = test system: MDA-MB-231 breast
# MDA-MB-435 = test system: MDA-MB-435
# MOLT-4 leukemia = test system: MOLT-4 leukemia
# NCI-H226 lung = test system: NCI-H226 lung
# NCI-H23 lung = test system: NCI-H23 lung
# NCI-H460 lung = test system: NCI-H460 lung
# NCI-H522 lung = test system: NCI-H522 lung
# NCI/ADR-RES ovarian = test system: NCI/ADR-RES ovarian
# OVCAR-3 ovarian = test system: OVCAR-3 ovarian
# OVCAR-4 ovarian = test system: OVCAR-4 ovarian
# OVCAR-5 ovarian = test system: OVCAR-5 ovarian
# OVCAR-8 ovarian = test system: OVCAR-8 ovarian
# PC-3 prostate = test system: PC-3 prostate
# RPMI-8226 leukemia = test system: RPMI-8226 leukemia
# RXF 393 renal = test system: RXF 393 renal
# SF-268 CNS = test system: SF-268 CNS
# SF-295 CNS = test system: SF-295 CNS
# SF-539 CNS = test system: SF-539 CNS
# SK-MEL-2 melanoma = test system: SK-MEL-2 melanoma
# SK-MEL-28 melanoma = test system: SK-MEL-28 melanoma
# SK-MEL-5 melanoma = test system: SK-MEL-5 melanoma
# SK-OV-3 ovarian = test system: SK-OV-3 ovarian
# SN12C renal = test system: SN12C renal
# SNB-19 CNS = test system: SNB-19 CNS
# SNB-75 CNS = test system: SNB-75 CNS
# SR leukemia = test system: SR leukemia
# SW-620 colon = test system: SW-620 colon
# T-47D breast = test system: T-47D breast
# TK-10 renal = test system: TK-10 renal
# U251 CNS = test system: U251 CNS
# UACC-257 melanoma = test system: UACC-257 melanoma
# UACC-62 melanoma = test system: UACC-62 melanoma
# UO-31 renal = test system: UO-31 renal
compound,measurement,setting,value
C#CCN(C)CCCOc1ccc(NCc2ccc(C(=O)NO)cc2)cc1Cl,GI50,786-0 renal,3.18 µM
same,TGI,786-0 renal,14.3 µM
same,GI50,A498 renal,1.11 µM
same,TGI,A498 renal,2.75 µM
same,GI50,A549 NSCLC,2.71 µM
same,TGI,A549 NSCLC,15.3 µM
same,GI50,ACHN renal,2.62 µM
same,TGI,ACHN renal,10.5 µM
same,GI50,BT-549 breast,2.76 µM
same,TGI,BT-549 breast,37.3 µM
same,GI50,CAKI-1 renal,2.33 µM
same,TGI,CAKI-1 renal,11.7 µM
same,GI50,CCRF-CEM leukemia,0.632 µM
same,TGI,CCRF-CEM leukemia,> 100 µM
same,GI50,COLO 205 colon,2.38 µM
same,TGI,COLO 205 colon,6.92 µM
same,GI50,DU-145 prostate,2.19 µM
same,TGI,DU-145 prostate,14.8 µM
same,GI50,EKVX NSCLC,3.6 µM
same,TGI,EKVX NSCLC,22.5 µM
same,GI50,HCC-2998 colon,2.66 µM
same,TGI,HCC-2998 colon,12.3 µM
same,GI50,HCT-116 colon,1.43 µM
same,TGI,HCT-116 colon,10.9 µM
same,GI50,HCT-15 colon,0.674 µM
same,TGI,HCT-15 colon,19.4 µM
same,GI50,HL-60(TB) leukemia,1.37 µM
same,TGI,HL-60(TB) leukemia,44.4 µM
same,GI50,HOP-62 NSCLC,2.8 µM
same,TGI,HOP-62 NSCLC,16.3 µM
same,GI50,HOP-92 NSCLC,1.37 µM
same,TGI,HOP-92 NSCLC,5.92 µM
same,GI50,HS 578T breast,1.85 µM
same,TGI,HS 578T breast,8.63 µM
same,GI50,HT29 colon,2.96 µM
same,TGI,HT29 colon,20.5 µM
same,GI50,IGROV1 ovarian,1.41 µM
same,TGI,IGROV1 ovarian,4.47 µM
same,GI50,K-562 leukemia,2.16 µM
same,TGI,K-562 leukemia,> 100 µM
same,GI50,KM12 colon,2.67 µM
same,TGI,KM12 colon,12.6 µM
same,GI50,LOX IMVI melanoma,1.76 µM
same,TGI,LOX IMVI melanoma,3.46 µM
same,GI50,MALME-3M melanoma,1.11 µM
same,TGI,MALME-3M melanoma,6.9 µM
same,GI50,MCF7 breast,2.83 µM
same,TGI,MCF7 breast,21 µM
same,GI50,MDA-MB-231 breast,2.1 µM
same,TGI,MDA-MB-231 breast,13.6 µM
same,GI50,MDA-MB-435,2.59 µM
same,TGI,MDA-MB-435,12.4 µM
same,GI50,MOLT-4 leukemia,1.46 µM
same,TGI,MOLT-4 leukemia,> 100 µM
same,GI50,NCI-H226 lung,2.45 µM
same,TGI,NCI-H226 lung,16.9 µM
same,GI50,NCI-H23 lung,2.18 µM
same,TGI,NCI-H23 lung,5.83 µM
same,GI50,NCI-H460 lung,2.08 µM
same,TGI,NCI-H460 lung,14.6 µM
same,GI50,NCI-H522 lung,1.07 µM
same,TGI,NCI-H522 lung,6.51 µM
same,GI50,NCI/ADR-RES ovarian,0.738 µM
same,TGI,NCI/ADR-RES ovarian,> 100 µM
same,GI50,OVCAR-3 ovarian,2.06 µM
same,TGI,OVCAR-3 ovarian,18.2 µM
same,GI50,OVCAR-4 ovarian,3.4 µM
same,TGI,OVCAR-4 ovarian,> 100 µM
same,GI50,OVCAR-5 ovarian,2.38 µM
same,TGI,OVCAR-5 ovarian,18.4 µM
same,GI50,OVCAR-8 ovarian,1.4 µM
same,TGI,OVCAR-8 ovarian,> 100 µM
same,GI50,PC-3 prostate,1.94 µM
same,TGI,PC-3 prostate,22.8 µM
same,GI50,RPMI-8226 leukemia,1.56 µM
same,TGI,RPMI-8226 leukemia,12.3 µM
same,GI50,RXF 393 renal,1.22 µM
same,TGI,RXF 393 renal,3.2 µM
same,GI50,SF-268 CNS,2.72 µM
same,TGI,SF-268 CNS,22.9 µM
same,GI50,SF-295 CNS,1.84 µM
same,TGI,SF-295 CNS,3.8 µM
same,GI50,SF-539 CNS,2.05 µM
same,TGI,SF-539 CNS,10.3 µM
same,GI50,SK-MEL-2 melanoma,2.77 µM
same,TGI,SK-MEL-2 melanoma,8.66 µM
same,GI50,SK-MEL-28 melanoma,2.57 µM
same,TGI,SK-MEL-28 melanoma,11.5 µM
same,GI50,SK-MEL-5 melanoma,1.51 µM
same,TGI,SK-MEL-5 melanoma,3.41 µM
same,GI50,SK-OV-3 ovarian,2.01 µM
same,TGI,SK-OV-3 ovarian,10.8 µM
same,GI50,SN12C renal,2.69 µM
same,TGI,SN12C renal,17.4 µM
same,GI50,SNB-19 CNS,3.08 µM
same,TGI,SNB-19 CNS,16.8 µM
same,GI50,SNB-75 CNS,2.28 µM
same,TGI,SNB-75 CNS,16.6 µM
same,GI50,SR leukemia,0.724 µM
same,TGI,SR leukemia,> 100 µM
same,GI50,SW-620 colon,2.18 µM
same,TGI,SW-620 colon,10.6 µM
same,GI50,T-47D breast,1.85 µM
same,TGI,T-47D breast,18.7 µM
same,GI50,TK-10 renal,1.91 µM
same,TGI,TK-10 renal,10.1 µM
same,GI50,U251 CNS,2.16 µM
same,TGI,U251 CNS,10 µM
same,GI50,UACC-257 melanoma,1.42 µM
same,TGI,UACC-257 melanoma,31.1 µM
same,GI50,UACC-62 melanoma,1.61 µM
same,TGI,UACC-62 melanoma,5.27 µM
same,GI50,UO-31 renal,0.5 µM
same,TGI,UO-31 renal,2.78 µM
